Values quoted from earlier work, collected in patent US20200000760A1, “METHOD FOR TREATING OVERACTIVE BLADDERS AND A DEVICE FOR STORAGE AND ADMINISTRATION OF TOPICAL OXYBUTYNIN COMPOSITIONS” (Allergan Sales, LLC, priority 2009, published 2020).

Experiments:
[1] = transdermal administration compared to oral administration
[2] = transdermal administration compared to oral administration; remark: listed apart in the source

With CCN(CC)CC#CCOC(=O)C(O)(c1ccccc1)C1CCCCC1 (centres unmarked) [oxybutynin] as the compound, how does the “oxybutynin:desethyloxybutynin ratio in the plasma” value [1] read?
Its value is “reduced”.

And the adverse events [2]?
The adverse events was “less adverse events”.
